{"source": "paper PMC11148772", "about": "“Inhibition of protein translational machinery in triple-negative breast cancer as a promising therapeutic strategy” (Cell Reports Medicine, 2024)", "key": {"MDA-MB-231 cells [1]": {"system": "MDA-MB-231 cells", "assay": "Cell cycle analysis (PI, flow cytometry)", "assay_type": "cell-based, human", "procedure": "(§1) TNBC cells (MDA-MB-231, MDA-MB-468, and SUM159) were seeded (40,000 cells per well) in 12 well plates and grown in regular conditions. The next day, cells were treated with DMSO (control) and indicated SU056 concentrations. At the end of each time point, cells were processed for PI staining as described earlier.[49] Synchronization of cells in G2/M phase was done using nocodazole (200 nM for 16 h) followed by SU056 treatment for 24 h. Cell cycle distribution was then analyzed by flow cytometry using a BD FACS Calibur (BD, USA)."}, "MDA-MB-468 cells": {"system": "MDA-MB-468 cells", "assay": "Cell cycle analysis (PI, flow cytometry)", "assay_type": "cell-based, human", "procedure": "as §1"}, "[2]": {"assay": "Maximum tolerated dose / acute oral toxicity", "assay_type": "in vivo, mouse", "settings": "for Body Weight, Mean / Toxicity (death/test): ICR (Female) mice", "procedure": "The acute oral toxicity of SU056 was evaluated by Eurofins lab services (Eurofins discovery). The oral toxicity study was performed in female rats and mice for multiple escalating doses (100 mg/kg, 200 mg/kg, 400 mg/kg). Rats and mice were monitored for their behavioral, neurological and autonomic signs after administration of SU056. The response was recorded as 0; no adverse effect, ±1 mild adverse effect, ±2, moderate adverse effect and ±3 severe adverse effect."}, "[3]": {"system": "translation machinery molecules (RPLs, RPSs, eIFs) in MDA-MB-231-YB-1 knockdown cells", "assay": "CETSA in YB-1 knockdown cells", "assay_type": "binding, human", "settings": "YB-1 knockdown vs scrambled control cells", "text": "In the second CETSA experiment with MDA-MB-231- YB-1 knockdown cells, the Orbitrap Eclipse Tribrid mass spectrometer parameters consisted of setting the cycle time at Top-speed at 1 s, the mass scan range set between 375 and 1800 m/z, and a mass resolution of 50,000. The normalized AGC target and maximum injection time was set to standard and auto respectively. The precursor ions were selected from highest to lowest charge state, sorted by the lowest m/z, and fragmented using Higher Energy Collisional Dissociation (HCD) with a fixed collisional energy of 38%. Dynamic exclusion was enabled for 60 s with a mass tolerance of ±10 ppm. The normalized AGC target set to 200% with a maximum injection time of 86 ms. MS2 fragments were detected in the Orbitrap with a mass resolution of 50,000 and scan range window of 110–1800 m/z.\nProteins were quantified using individual spectra matched peptides based on a sum-based bootstrap algorithm, which used the TMT reporter ion intensity after correcting for isotope impurities with Proteome Discoverer 2.4. The protein levels were compared between the vehicle and SU056 treated samples. The lowest temperature was used as a reference to calculate the log2 ratio of the soluble fraction signal at each temperature, and the signal at each temperature was compared to the […] temperature to estimate the percentage of signal lost in the soluble fraction. […]"}, "MDA-MB-231 cells [4]": {"system": "MDA-MB-231 cells", "assay": "Polysome profiling", "assay_type": "cell-based, human", "settings": "1 μM, 12 h", "procedure": "1 x 10^6 MDA-MB-231 cells were plated in 100 mm culture plate and allowed to be attached for 24 h. Next day, cells were treated with vehicle or SU056 (1 μM) for 12 h in regular culture medium. Next, cells were incubated with cycloheximide (10 μg/mL) for 5 min at 37°C. Cells were then washed twice in 1x PBS with 10 μg/mL cycloheximide and collected by trypsinization and snap freeze in liquid nitrogen. Cell pellet was lysated in 250 μL polysome lysis buffer (5 mM Tris-HCl [pH 7.4], 1.5 mM KCl, 2.5 mM MgCl2, 0.1 mg/mL cycloheximide, 100 U/mL RNasin, 1× EDTA-free Complete protease inhibitor cocktail, 2 mM DTT, 0.5% Triton X-100, 0.5% deoxycholate). Lysate were quantified taking absorbance at 260 nm using Nanodrop and loaded on a linear 15%–50% sucrose gradient. The gradients were ultracentrifuged SW41Ti rotor (Beckman) for 1 h and 30 min at 180,000 g at 4°C in Beckman Optima LE-80K Ultracentrifuge. The gradients were fractionated in 1 mL volume fractions with continuous monitoring absorbance at 254 nm using an ISCO UA-6 UV detector at Immagina Biotechnology, Pergine, Italy."}, "[5]": {"settings": "nocodazole 200 nM 16 h, then SU056 24 h"}}, "note": "Entries after “also recorded” stand apart in the source; their conditions may differ.", "data": [{"smiles": "O=C1OCC2=C1C(c1cccc(F)c1)c1cc3c(cc1N2CCO)OCO3", "note": "(stereo not shown) [SU056, 9-(3-fluorophenyl)-5-(2-hydroxyethyl)-6,9-dihydro-[1,3]dioxolo[4,5-g]furo[3,4-b]quinolin-8(5H)-one]", "values": [{"measurement": "cells in G2/M phase", "setting": "MDA-MB-231 cells [1]; 24 h, control 12%", "result": 34, "unit": "%"}, {"measurement": "cell death in nocodazole-synchronized cells", "setting": "MDA-MB-231 cells [1]; [5]", "result": "increased cell death"}, {"measurement": "cell cycle effect", "setting": "MDA-MB-468 cells; 0.5, 1.0, and 2.0 μM, 12 and 24 h", "result": "G2/M phase arrest"}, {"measurement": "cell death in nocodazole-synchronized cells", "setting": "MDA-MB-468 cells; [5]", "result": "increased cell death"}, {"measurement": "Body Weight, Mean", "setting": "[2]; 100 mg/kg, 0 hr", "result": 23.0, "unit": "gm"}, {"measurement": "Toxicity (death/test)", "setting": "[2]; 100 mg/kg, 15 min", "result": "0/3"}, {"measurement": "Toxicity (death/test)", "setting": "[2]; 100 mg/kg, 1 hr", "result": "0/3"}, {"measurement": "Body Weight, Mean", "setting": "[2]; 100 mg/kg, 24 hr", "result": 23.0, "unit": "gm"}, {"measurement": "Toxicity (death/test)", "setting": "[2]; 100 mg/kg, 24 hr", "result": "0/3"}, {"measurement": "Body Weight, Mean", "setting": "[2]; 100 mg/kg, 48 hr", "result": 23.3, "unit": "gm"}, {"measurement": "Toxicity (death/test)", "setting": "[2]; 100 mg/kg, 48 hr", "result": "0/3"}, {"measurement": "Body Weight, Mean", "setting": "[2]; 100 mg/kg, 72 hr", "result": 24.3, "unit": "gm"}, {"measurement": "Toxicity (death/test)", "setting": "[2]; 100 mg/kg, 72 hr", "result": "0/3"}, {"measurement": "Body Weight, Mean", "setting": "[2]; 200 mg/kg, 0 hr", "result": 23.7, "unit": "gm"}, {"measurement": "Toxicity (death/test)", "setting": "[2]; 200 mg/kg, 15 min", "result": "0/3"}, {"measurement": "Toxicity (death/test)", "setting": "[2]; 200 mg/kg, 1 hr", "result": "0/3"}, {"measurement": "Body Weight, Mean", "setting": "[2]; 200 mg/kg, 24 hr", "result": 24.0, "unit": "gm"}, {"measurement": "Toxicity (death/test)", "setting": "[2]; 200 mg/kg, 24 hr", "result": "0/3"}, {"measurement": "Body Weight, Mean", "setting": "[2]; 200 mg/kg, 48 hr", "result": 24.0, "unit": "gm"}, {"measurement": "Toxicity (death/test)", "setting": "[2]; 200 mg/kg, 48 hr", "result": "0/3"}, {"measurement": "Body Weight, Mean", "setting": "[2]; 200 mg/kg, 72 hr", "result": 24.3, "unit": "gm"}, {"measurement": "Toxicity (death/test)", "setting": "[2]; 200 mg/kg, 72 hr", "result": "0/3"}, {"measurement": "Body Weight, Mean", "setting": "[2]; 400 mg/kg, 0 hr", "result": 22.7, "unit": "gm"}, {"measurement": "Toxicity (death/test)", "setting": "[2]; 400 mg/kg, 15 min", "result": "0/3"}, {"measurement": "Toxicity (death/test)", "setting": "[2]; 400 mg/kg, 1 hr", "result": "0/3"}, {"measurement": "Body Weight, Mean", "setting": "[2]; 400 mg/kg, 24 hr", "result": 22.7, "unit": "gm"}, {"measurement": "Toxicity (death/test)", "setting": "[2]; 400 mg/kg, 24 hr", "result": "0/3"}, {"measurement": "Body Weight, Mean", "setting": "[2]; 400 mg/kg, 48 hr", "result": 23.3, "unit": "gm"}, {"measurement": "Toxicity (death/test)", "setting": "[2]; 400 mg/kg, 48 hr", "result": "0/3"}, {"measurement": "Body Weight, Mean", "setting": "[2]; 400 mg/kg, 72 hr", "result": 24.3, "unit": "gm"}, {"measurement": "Toxicity (death/test)", "setting": "[2]; 400 mg/kg, 72 hr", "result": "0/3"}, {"measurement": "behavioral, neurological, and anatomical signs of toxicity and morbidity", "setting": "[2]; mice, 100, 200, and 400 mg/kg oral gavage, 72 h", "result": "not affected; also recorded: no observable changes"}, {"measurement": "thermal stability of translation machinery molecules (RPLs, RPSs, and eIFs)", "setting": "[3]", "result": "does not increase"}, {"measurement": "translational efficiency compared to control cells", "setting": "MDA-MB-231 cells [4]", "result": "reduced translational efficiency"}]}]}
